Laboratory results as given in patent publication US10441608B2, “Continuous methods for treating liquids and manufacturing certain constituents (e.g., nanoparticles) in liquids, apparatuses and nanoparticles and nanoparticle/liquid solution(s) resulting therefrom” (Clene Nanomedicine, Inc., priority 2009, dated 2019).
Converted amounts (≈) assume the structure as drawn. “And” between values parts separate entries of the source, which are not always exact repeats. Identical values can stand only once. Like-named read-outs stand apart in the source and are kept apart here.

System: Gram-Positive and Gram Negative bacteria
Format: cell-based

C[C@H]1COc2c(N3CCN(C)CC3)c(F)cc3c(=O)c(C(=O)O)cn1c23 [Levofloxacin]
MIC/MID 50 (Citrobacter freundii - antibiotic-susceptible clinical isolate): 0.02 µg/mL (≈ 0.0553 µM)
MIC/MID 50 (Citrobacter freundii - resistant clinical isolate): 8.00 µg/mL (≈ 22.1 µM)
MIC/MID 50 (Enterobacter sp - antibiotic-susceptible clinical isolate): 0.12 µg/mL (≈ 0.332 µM)
MIC/MID 50 (Enterobacter sp - multi-drug resistant clinical isolate): 0.06 µg/mL (≈ 0.166 µM)
MIC/MID 50 (Enterococcus faecalis - ATCC 29212 antibiotic-susceptible control strain): 2.00 µg/mL (≈ 5.53 µM)
MIC/MID 50 (Enterococcus faecalis vancomycin-susceptible clinical isolate): 4.00 µg/mL (≈ 11.1 µM)
MIC/MID 50 (Enterococcus faecium vancomycin-resistant (VanB) clinical isolate): 4.00 µg/mL (≈ 11.1 µM)
MIC/MID 50 (Enterococcus gallinarum vancomycin-resistant (VanC) clinical isolate): 2.00 µg/mL (≈ 5.53 µM)
MIC/MID 50 (Escherichia coli ATCC25922 - antibiotic-susceptible type strain): 0.02 µg/mL (≈ 0.0553 µM)
MID/MIC (amount of antibiotic) (GN01 Escherichia coli ATCC25922, antibiotic-susceptible type strain): 0.015 mg/L
MID/MIC (amount of antibiotic) (GN02 Escherichia coli ATCC35218, β-lactamase positive type strain): 0.015 mg/L
MID/MIC (amount of antibiotic) (GN06 Enterobacter sp, antibiotic-susceptible clinical isolate): 0.06 mg/L and 0.12 mg/L
MID/MIC (amount of antibiotic) (GN10 Pseudomonas aeruginosa ATCC27853, antibiotic-susceptible type strain): 2 mg/L
MID/MIC (amount of antibiotic) (GN11 Pseudomonas aeruginosa, multi-drug resistant clinical isolate): 2 mg/L
MID/MIC (amount of antibiotic) (GN12 Stenotrophomonas maltophilia, antibiotic-susceptible clinical isolate): 0.25 mg/L
MID/MIC (amount of antibiotic) (GN13 Stenotrophomonas maltophila, antibiotic-resistant clinical isolate): 1 mg/L
MID/MIC (amount of antibiotic) (GN14 Burkholderia cepacia, antibiotic-susceptible clinical isolate): 4 mg/L
MID/MIC (amount of antibiotic) (GN15 Proteus mirabilis, antibiotic-susceptible clinical isolate): 0.06 mg/L
MID/MIC (amount of antibiotic) (GN16 Proteus mirabilis, multi-drug resistant clinical isolate): 2 mg/L
MID/MIC (amount of antibiotic) (GN17 Salmonella sp, antibiotic-susceptible clinical isolate): 0.03 mg/L
MID/MIC (amount of antibiotic) (GN18 Salmonella sp, multi-drug resistant clinical isolate): 0.06 mg/L
MID/MIC (amount of antibiotic) (GN19 Shigella sp, antibiotic-susceptible clinical isolate): 0.03 mg/L
MID/MIC (amount of antibiotic) (GN20 Shigella sp, multi-drug resistant clinical isolate): 0.03 mg/L
MID/MIC (amount of antibiotic) (GN22 Morganella morganii, multi-drug resistant clinical isolate): 1 mg/L
MID/MIC (amount of antibiotic) (GN23 Providencia stuartii, antibiotic-susceptible clinical isolate): 0.06 mg/L
MID/MIC (amount of antibiotic) (GN24 Providencia stuartii, multi-drug resistant clinical isolate): 8 mg/L
MID/MIC (amount of antibiotic) (GN28 Haemophilus influenzae, β-lactamase negative ampicillin-resistant clinical isolate): 0.06 mg/L
MID/MIC (amount of antibiotic) (GN29 Moraxella catarrhalis, β-lactamase positive clinical isolate): 0.06 mg/L
MID/MIC (amount of antibiotic) (GN32 Acinetobacter baumanii, multi-drug resistant clinical isolate): 8 mg/L
MID/MIC (amount of antibiotic) (GN33 Bacteroides fragilis, antibiotic-susceptible clinical isolate, supplemented with 2% serum and 1 μg/mL Vit K): 0.015 mg/L
MID/MIC (amount of antibiotic) (GP02 Staphylococcus aureus ATCC 25923, antibiotic-susceptible control strain): 0.12 mg/L
MID/MIC (amount of antibiotic) (GP04 Staphylococcus aureus, methicillin-resistant clinical isolate): 0.12 mg/L
MID/MIC (amount of antibiotic) (GP05 Staphylococcus aureus, multi-drug-resistant clinical isolate): 4 mg/L
MID/MIC (amount of antibiotic) (GP06 Staphylococcus aureus, teicoplanin-intermediate clinical isolate): 4 mg/L
MID/MIC (amount of antibiotic) (GP07 Staphylococcus epidermidis, antibiotic susceptible clinical isolate): 0.12 mg/L
MID/MIC (amount of antibiotic) (GP08 Staphylococcus epidermidis, methicillin-resistant clinical isolate): 0.25 mg/L
MID/MIC (amount of antibiotic) (GP09 Staphylococcus haemolyticus, antibiotic susceptible clinical isolate): 0.5 mg/L
MID/MIC (amount of antibiotic) (GP10 Staphylococcus saprophyticus, antibiotic susceptible clinical isolate): 0.5 mg/L
MID/MIC (amount of antibiotic) (GP11 Enterococcus faecalis ATCC 29212, antibiotic-susceptible control strain): 2 mg/L
MID/MIC (amount of antibiotic) (GP12 Enterococcus faecalis, vancomycin-susceptible clinical isolate): 4 mg/L
MID/MIC (amount of antibiotic) (GP15 Enterococcus faecalis, high-level gentamicin-resistant clinical isolate): >8 mg/L
MID/MIC (amount of antibiotic) (GP16 Enterococcus faecium, vancomycin-susceptible clinical isolate): >8 mg/L
MID/MIC (amount of antibiotic) (GP17 Enterococcus faecium, vancomycin-resistant (VanA) clinical isolate): 4 mg/L
MID/MIC (amount of antibiotic) (GP18 Enterococcus faecium, vancomycin-resistant (VanB) clinical isolate): 2 mg/L
MID/MIC (amount of antibiotic) (GP19 Enterococcus gallinarum, vancomycin-resistant (VanC) clinical isolate): 1 mg/L
MID/MIC (amount of antibiotic) (GP20 Streptococcus pneumoniae ATCC 49619, antibiotic-susceptible control strain): 1 mg/L
MID/MIC (amount of antibiotic) (GP21 Streptococcus pneumoniae, pencillin-susceptible clinical isolate): 0.5 mg/L
MID/MIC (amount of antibiotic) (GP22 Streptococcus pneumoniae, penicillin-intermediate clinical isolate): 0.5 mg/L
MID/MIC (amount of antibiotic) (GP23 Streptococcus pneumoniae, penicillin-resistant clinical isolate): 0.5 mg/L and 1 mg/L
MID/MIC (amount of antibiotic) (GP25 Streptococcus pyogenes, antibiotic-susceptible clinical isolate): 0.5 mg/L
MID/MIC (amount of antibiotic) (GP29 Corynebacterium jeikeium, multi-drug resistant clinical isolate): 0.5 mg/L
MID/MIC (amount of antibiotic) (GP30 Listeria monocytogenes, antibiotic-susceptible clinical isolate): 8 mg/L
MID/MIC (amount of antibiotic) (GP31 MU50 Staphylococcus aureus (MRSA), VISA type strain): 0.06 mg/L
